According to article PMC6269716 (2013):

Experiments:
[1] = tested on: HTelo21 (DNA, G4) GGGTTAGGGTTAGGGTTAGGG; test: ESI-MS peak intensities; details: NH4+ (150 mM ammonium acetate); 15% methanol added before injection; 5 µM DNA; site 1 of 2
[2] = tested on: CKIT1 (c-kit-1, FRET) (DNA, G4) AGAGGGAGGGCGCTGGGAGGAGGGGCT; test: FRET melting; details: K+ (60 mM); potassium cacodylate pH 7.4; 1 µM compound; 200 nM DNA
[3] = tested on: BCL2 (FRET) (DNA, G4) GGGCGCGGGAGGAAGGGGGCGGG; test: FRET melting; details: K+ (60 mM); potassium cacodylate pH 7.4; 1 µM compound; 200 nM DNA
[4] = tested on: T Loop (DNA, hairpin, hexaethyleneglycol (HEG) linker between nucleotides 10 and 11 as hairpin loop) TATAGCTATATATAGCTATA; test: FRET melting; details: K+ (60 mM); potassium cacodylate pH 7.4; 1 µM compound; 200 nM DNA
[5] = tested on: DK66 (DNA, duplex) CGCGAATTCGCG; test: ESI-MS peak intensities; details: NH4+ (150 mM ammonium acetate), 15% methanol added before injection, 5 µM DNA
[6] = tested on: F21T (HTelo-21, FRET) (DNA, G4) GGGTTAGGGTTAGGGTTAGGG; test: FRET melting; details: K+ (60 mM); potassium cacodylate pH 7.4; 1 µM compound; 200 nM DNA

| SMILES | Log K1 [1] | ΔTm [2] [°C] | ΔTm [3] [°C] | ΔTm [4] [°C] | Log K1 ([5]; site 1 of 2) | ΔTm [6] [°C] | Log K1 [5] |
| --- | --- | --- | --- | --- | --- | --- | --- |
| CN(C)CCCCCC(=O)c1ccc2c(c1)C(CCCCN(C)C)c1cc(C(=O)CCCCCN(C)C)ccc1O2 | 5.2 ± 0.4 | 7.9 ± 0.1 | 4.8 ± 0.1 | 2.2 ± 0.1 | 3.6 ± 0.3 | 11.9 ± 0.1 |  |
| CN(C)CCCCCC(=O)c1ccc2c(c1)Cc1cc(C(=O)CCCCCN(C)C)ccc1O2 | 4.6 ± 0.1 |  |  |  | 3.4 ± 0.2 |  |  |
| CN(C)CCCCCC(=O)c1ccc2oc3ccc(C(=O)CCCCCN(C)C)cc3c(=O)c2c1 | 4.0 ± 0.1 |  |  |  | 3.3 ± 0.2 |  |  |
| CN(C)CCCCOc1ccc2c(=O)c3ccc(OCCCCN(C)C)cc3oc2c1 | 4.7 ± 0.1 |  |  |  | 3.6 ± 0.1 |  |  |
| CN1CCN(CCCCCC(=O)c2ccc3c(c2)Cc2cc(C(=O)CCCCCN4CCN(C)CC4)ccc2O3)CC1 | 4.4 ± 0.1 |  |  |  | 3.7 ± 0.1 |  |  |
| CN1CCN(CCCCCC(=O)c2ccc3oc4ccc(C(=O)CCCCCN5CCN(C)CC5)cc4c(=O)c3c2)CC1 | 4.1 ± 0.1 |  |  |  | 1.8 ± 0.2 |  |  |
| CN1CCN(CCCCOc2ccc3c(=O)c4ccc(OCCCCN5CCN(C)CC5)cc4oc3c2)CC1 | 4.3 ± 0.1 |  |  |  | 3.5 ± 0.1 |  |  |
| O=C(CCCCCN1CCCCC1)c1ccc2c(c1)C(CCCC1c3cc(C(=O)CCCCCN4CCCCC4)ccc3Oc3ccc(C(=O)CCCCCN4CCCCC4)cc31)c1cc(C(=O)CCCCCN3CCCCC3)ccc1O2 | 5.8 ± 0.1 |  |  |  | 3.9 ± 0.1 |  |  |
| O=C(CCCCCN1CCCCC1)c1ccc2c(c1)Cc1cc(C(=O)CCCCCN3CCCCC3)ccc1O2 | 4.7 ± 0.1 | 1.0 ± 0.1 | 0.7 ± 0.1 | 0.4 ± 0.1 | 3.8 ± 0.2 | 1.3 ± 0.1 |  |
| O=C(CCCCCN1CCCCC1)c1ccc2oc3ccc(C(=O)CCCCCN4CCCCC4)cc3c(=O)c2c1 | 4.4 ± 0.1 |  |  |  | 3.7 ± 0.1 |  |  |
| O=c1c2ccc(OCCCCN3CCCCC3)cc2oc2cc(OCCCCN3CCCCC3)ccc12 | 4.7 ± 0.1 |  |  |  |  |  | 3.4 ± 0.1 |
